Experiments:
[1] = Ex-vivo cut-and-count whole-body biodistribution of I.V.-injected [11C]ERGO in WT mice; set-up: species or system mouse; conditions: pharmacokinetic study
[2] = test system: oxidative stress; test: Dynamic microPET uptake and retention of [11C]ERGO in brains of 5XFAD versus WT mice; format: in vivo, mouse; conditions: 10-month-old, n=4, 14.8 MBq in 0.1 mL via tail vein
Experimental: Dynamic uptake and retention of [^11C]ERGO radioligand. Two cohorts of age-matched mice (10-month-old, n=4, each), including 5XFAD and WT animals, were injected with a consistent amount of 14.8 MBq of [^11C]ERGO in 0.1 mL via the tail vein prior to acquiring dynamic imaging. […] In this work, we decided to run 20-min dynamic scans to test, as a proof-of-concept, whether the affinity of ERGO for radicals and/or metals, which are integrated in or very closely associated with Abeta aggregates, would trap the probe. […] The mean percent of ID/g in the brains of 5XFAD mice (n=4) were 0.81±0.09, 0.72±0.09, 0.72±0.10, 0.71±0.12, 0.72±0.08, 0.83±0.10 for cortex, hippocampus, striatum, thalamus, cerebellum and whole brain, respectively, whereas for WT mice (n=4), the values were 0.52±0.13, 0.47±0.18, 0.47±0.15, 0.42±0.18, 0.51±0.13, 0.55±0.14. […] 5XFAD brains are associated with high levels of GFAP and IBA1 expression. After PET/CT imaging, animals underwent through the cardiac perfusion process, and the brains were embedded in OCT solution for micro-sectioning. […] The hippocampal regions of 5XFAD mice, including the dentate gyrus (DG), Cornu ammonis (CA) and the surrounding regions are populated with astrocytes, which were detected and quantified by immunostaining using anti-GFAP antibody. […] Quantitatively, about 2-fold higher levels of this inflammatory marker is found in 5XFAD versus control mice (*p<0.05). In a similar observation, 5XFAD mouse brains have greater numbers of IBA1-positive activated microglia (arrows) compared to WT counterparts.
Dynamic PET imaging. The dynamic acquisition was divided into twelve 5 sec frames, four 60 sec frames, five 120 sec frames, three 5 min frames, and six 10 min scans. The data from all possible lines of response (LOR) were saved in the list mode raw data format. The raw data were then binned into 3D sinograms with a span of 3 and ring difference of 47. The images were reconstructed into transaxial slices (128×128×159) with voxel sizes of 0.0815×0.0815×0.0796 cm^3, using the MAP algorithm with 16 subsets, 4 iterations, and a beta of 0.0468. For anatomical co-registration, immediately following the PET scans, the mice received a CT scan in a NanoSPECT/CT (Mediso, Wash. D.C.) at an X-ray beam intensity of 90 mAs and x-ray peak voltage of 45 kVp. The CT images were reconstructed into 170×170×186 voxels at a voxel size of 0.4×0.4×0.4 mm^3. The PET/CT images were uploaded into Amide software (www.sourceforge.com), co-registered to an MRI template made in-house, and volumetric regions-of-interest were drawn around the cortex, hippocampus, striatum, thalamus, and cerebellum in addition to the whole brain. The PET images were normalized to the injected dose, and the time-activity-curves (TACs) of the mean activity within the ROIs were estimated for the entire duration of the scans.

[3] = test system: glucose metabolism; test: [18F]FDG PET imaging of glucose metabolism after ERGO treatment; format: in vivo, mouse; conditions: 6-month-old 5XFAD, ERGO 6 doses each 50 mg/Kg during 2 weeks, versus non-treated 5XFAD, n=3
Experimental: The brain consumes a significant amount of glucose, approximately 25% of the body's glucose. It is well known that glucose metabolism is diminished in the early onset of AD. Therefore, [^18F]FDG PET imaging to assess glucose levels could be used for AD diagnosis. For this purpose, three cohorts of age-matched mice (6-month-old, n=3 for each cohort), including WT, non-treated 5XFAD and ERGO-treated 5XFAD (6 doses, each 50 mg/Kg during the course of 2 weeks) were studied. Afterward, animals were injected with [^18F]FDG probe (15 MBq, 100 μL/mouse) and underwent […] dynamic PET scans and CT scans.
The dynamic acquisition was divided into twelve 5-second frames, four 60-second frames, five 120-second frames, three 5-min frames, and six 10-min scans. The data from all possible lines of response (LOR) were saved in the list mode raw data format. The raw data were then binned into 3D sinograms with a span of 3 and ring difference of 47. The images were reconstructed into transaxial slices (128×128×159) with voxel sizes of 0.0815×0.0815×0.0796 cm^3, using the MAP algorithm with 16 subsets, 4 iterations, and a beta of 0.0468. For anatomical co-registration, immediately following the PET scans, the mice received a CT scan in a NanoSPECT/CT (Mediso, Wash. D.C.) at an X-ray beam intensity of 90 mAs and x-ray peak voltage of 45 kVp. […]

SMILES | time after injection at which the concentration in the serum started to decrease [1] | mean percent of ID/g, cerebellum ([2]; 5XFAD mice) | mean percent of ID/g, cortex ([2]; 5XFAD mice) | mean percent of ID/g, hippocampus ([2]; 5XFAD mice) | mean percent of ID/g, striatum ([2]; 5XFAD mice) | mean percent of ID/g, thalamus ([2]; 5XFAD mice) | mean percent of ID/g, whole brain ([2]; 5XFAD mice) | mean percent of ID/g, cerebellum ([2]; WT mice) | mean percent of ID/g, cortex ([2]; WT mice) | mean percent of ID/g, hippocampus ([2]; WT mice) | mean percent of ID/g, striatum ([2]; WT mice) | mean percent of ID/g, thalamus ([2]; WT mice) | mean percent of ID/g, whole brain ([2]; WT mice) | glucose levels in the brain ([18F]FDG uptake, SUV) [3]
C[N+](C)([11CH3])[C@@H](Cc1c[nH]c(=S)[nH]1)C(=O)[O-] [[^11C]ERGO] | 10 min | 0.72±0.08% of ID/g | 0.81±0.09% of ID/g | 0.72±0.09% of ID/g | 0.72±0.10% of ID/g | 0.71±0.12% of ID/g | 0.83±0.10% of ID/g | 0.51±0.13% of ID/g | 0.52±0.13% of ID/g | 0.47±0.18% of ID/g | 0.47±0.15% of ID/g | 0.42±0.18% of ID/g | 0.55±0.14% of ID/g | –
C[N+](C)(C)[C@@H](Cc1c[nH]c(=S)[nH]1)C(=O)[O-] [ERGO, L-ergothioneine] | – | – | – | – | – | – | – | – | – | – | – | – | – | significantly elevated

Reference: patent US20230097883A1, “ERGOTHIONEINE PET COMPOUNDS AND METHODS OF USE THEREOF” (VANDERBILT UNIVERSITY, priority 2021, published 2023)
